For data set [1], the system named is Acinetobacter baumannii ATCC 19606. It counts as cell-based. As to conditions: A. baumannii ATCC 19606; TSB.
Experimental: (§1) The minimum inhibitory concentration (MIC) of paenipeptin analogues was determined using the broth microdilution method (Wirker, M. A. Methods for Dilution Antimicrobial Susceptibility Tests for Bacteria that Grow Aerobically: Approved Standard M07-A8; Clinical and Laboratory Standards Institute, Wayne, Pa., 2009). Seven reference strains (Acinetobacter baumannii ATCC 19606, Escherichia coli ATCC 25922, Klebsiella pneumoniae ATCC 13883, Pseudomonas aeruginosa ATCC 27853, Enterococcus faecium ATCC 19434, Staphylococcus aureus ATCC 29213 and methicillin-resistant S. aureus ATCC 43300) were subjected to MIC testing.
(§2) Paenipeptin analogues were two-fold diluted in tryptic soy broth (TSB; Becton Dickinson) and mixed with an equal volume of bacterial suspensions in TSB containing approximately 1.5×10^5 colony-forming units (CFU)/mL in a clear UV-sterilized 96-well microtiter plate (NBS, Corning Inc., Corning, N.Y.). […] The microtiter plate was incubated at 37° C. for 18-20 h.
The test system of data set [2] is A. baumannii FDA-CDC AR 0037. As to conditions: A. baumannii AR 0037.
Data set [3] relates to A. baumannii FDA-CDC AR 0052. As to conditions: A. baumannii AR 0052.
For data set [4], the system named is Enterococcus faecium ATCC 19434. It counts as cell-based. As to conditions: E. faecium ATCC 19434; TSB.
In data set [5] the test system is Klebsiella pneumoniae ATCC 13883. The format is cell-based. As to conditions: K. pneumoniae ATCC 13883; TSB.
Experimental: as §1, §2
Data set [6] has as its system rabbit red blood cells. Briefly: Hemolytic activity. It counts as cell-based. As to conditions: for Hemolysis: relative to Triton X-100. The gist of the method:
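Washed defibrinated rabbit RBCs in PBS pH 7.2 incubated 30 min at 37 °C with paenipeptin analogues at 16–128 μg/mL final. Released hemoglobin read at 415 nm in the supernatant; % hemolysis relative to 0.1% Triton X-100.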

Converted amounts (≈) assume the structure as drawn. Read-outs that look alike come from different tables or passages of the source. Where a SMILES comes first, the peptide text is derived from it. [ ]: non-standard residue; d: D form. The star is where a group is joined. Dab = NCC[C@H](N)C(=O)O; Cbz = O=C(OCc1ccccc1)*

The MIC is the lowest concentration found to suppress growth. A higher MIC goes with a less susceptible organism. As to `CC[C@H](C)[C@H](NC(=O)[C@H](CCN)NC(=O)OCc1ccccc1)C(=O)N[C@@H](CCN)C(=O)N[C@H](Cc1ccccc1)C(=O)N[C@@H](CC(C)C)C(=O)N[C@@H](CCN)C(=O)N[C@@H](C(=O)N[C@@H](CC(C)C)C(=O)N[C@@H](CO)C(N)=O)C(C)C` [Analogue 15] (Cbz-[Dab]I[Dab][dF]L[Dab][dV]LS-NH2), the minimum inhibitory concentration (MIC) in data set [1] was 16 µg/mL (≈ 14.2 µM); in data set [4], above 32 µg/mL; in data set [5], above 32 µg/mL. In addition, the “MIC of rifampicin at the presence of PMBN or paenipeptin analogue at 4 μg/ml” value in data set [2] is recorded as at most 0.0019 μg/ml. In addition, the MIC alone in data set [2] (10% FBS) was 4 µg/mL (≈ 3.56 µM); in data set [2] (No FBS), 8 µg/mL (≈ 7.11 µM); in data set [3] (10% FBS), below 0.5 µg/mL; in data set [3] (No FBS) it was at most 0.5 µg/mL. Besides, the “increase in antibiotic activity of clarithromycin” value in data set [2] (analogue at 4 μg/mL) stood at 8192 fold. Moreover, the Hemolysis is 0.77 ± 0.15% in data set [6] (16 μg/mL), 0.41 ± 0.67% in data set [6] (32 μg/mL), 0.54 ± 0.70% in data set [6] (64 μg/mL) and 0.65 ± 0.29% in data set [6] (128 μg/mL). The “hemolytic activity (in words)” value in data set [6] (128 μg/mL) is on record as “nonhemolytic”.

Source of the values: patent US11364275B2, “Linear lipopeptide paenipeptins and methods of using the same” (priority 2017, dated 2022).
